Experimental findings from PubChem BioAssay AID687022 (Broad Institute, 2013) are described below.

Activity calls are given as the source filed them.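 Rule for the calls: active = Fitted curve of melting temperature shift crosses the 1.0 threshold at or below the sample's highest valid tested concentration; inconclusive = Flat fit with activity 30 to 70, or invalid fit; inactive = Opposite direction, flat within 30, or no crossing.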 Where only a bound is given, the exact number is not on record here.

The test deals with Fibroblast growth factor 22 (Homo sapiens) (UniProt Q9HCT0). Description: binders of human FGF22 protein, dose response, FGF22 synaptogenesis inhibitor project, biophysical, thermal shift, cherry-pick (AID 687022). The settings on record: recombinant FGF22 thermal shift, SYPRO orange melting.
Chain of Fibroblast growth factor 22 (Homo sapiens) (Q9HCT0 whole entry, looked up): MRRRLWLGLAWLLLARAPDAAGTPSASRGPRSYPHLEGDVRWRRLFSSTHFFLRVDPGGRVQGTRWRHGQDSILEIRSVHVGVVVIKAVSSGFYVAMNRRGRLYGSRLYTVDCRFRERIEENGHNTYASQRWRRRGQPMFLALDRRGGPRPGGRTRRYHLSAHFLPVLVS
With `Cc1ccc(NC(=O)c2ccc(OCc3c(C)noc3C)cc2)c(C)c1`, the AbsAC1 (concentration giving Tm-shift threshold 1.0) is 2.58 µM.
As for `COc1ccc(NS(=O)(=O)c2ccc(Cl)c(N)c2)cc1Br`, the AbsAC1 (concentration giving Tm-shift threshold 1.0) was 4.09 µM.
Consider `Cc1noc(NS(=O)(=O)c2ccc(NC(=O)c3cccc(S(=O)(=O)N(C)c4ccccc4)c3)cc2)c1C`, for which the AbsAC1 (concentration giving Tm-shift threshold 1.0) is 4.7 µM.
With `O=C(NCc1ccc(Cl)cc1)c1n[nH]c([N+](=O)[O-])c1Cl`, the AbsAC1 (concentration giving Tm-shift threshold 1.0) is 5.18 µM.
On to `CN(NC1OC(=O)c2ccccc21)c1ncc(C(F)(F)F)cc1Cl` (centres undefined), for which the AbsAC1 (concentration giving Tm-shift threshold 1.0) is 29.3 µM.
With `COC(=O)C[C@H]1CC[C@@H]2[C@@H](COc3ccc(NC(=O)Nc4ccc(C#N)cc4)cc3C(=O)N2C)O1` the figure was 5.43 µM; with `O=C(Nc1nccs1)c1ccc(S(=O)(=O)NCc2cccs2)cc1`, 11.1 µM.
With `COc1ccc2nc(NC(=O)CCc3cc(OC)c(OC)c(OC)c3)sc2c1`, the AbsAC1 (concentration giving Tm-shift threshold 1.0) is 19.3 µM.
Turning to `O=c1c2ccccc2[nH]c2ccc(F)cc12`, the AbsAC1 (concentration giving Tm-shift threshold 1.0) was > 38 µM (inactive).
`C/C=C/c1ccc2c(c1)O[C@H](CN(C)C(=O)Nc1cc(F)ccc1F)[C@H](C)CN([C@H](C)CO)S2(=O)=O`: the AbsAC1 (concentration giving Tm-shift threshold 1.0) is > 42 µM (inactive).
Take `CCOc1ccc(NC(=O)CC2C(=O)N(c3ccc(OC)cc3)C(=S)N2Cc2ccccn2)cc1` (centres undefined): the AbsAC1 (concentration giving Tm-shift threshold 1.0) is 3.11 µM.
Consider `Cc1cc(C)n(-c2ccc(C(=O)Nc3ccc(S(=O)(=O)N(C)C)cc3)cc2)n1`, for which the AbsAC1 (concentration giving Tm-shift threshold 1.0) is 9.32 µM.
As for `CC(=O)Nc1cccc(C(=O)N/N=C/c2c[nH]c3ccccc23)c1`, the AbsAC1 (concentration giving Tm-shift threshold 1.0) is 2.4 µM.
With `COc1ccc2o/c(=N\O)c(C(=O)Nc3ccc(C)cc3)cc2c1`, the AbsAC1 (concentration giving Tm-shift threshold 1.0) is 28 µM.
In the case of `O=C(Cc1c[nH]c2ccccc12)N1CCN(S(=O)(=O)c2cccc(Cl)c2Cl)CC1`, the AbsAC1 (concentration giving Tm-shift threshold 1.0) was 13.4 µM.
Regarding `O=C(Nc1nc(-c2ccccn2)cs1)c1cc2ccccc2o1`, the AbsAC1 (concentration giving Tm-shift threshold 1.0) is 16.1 µM.
For `O=C(NCCc1c[nH]c2ccccc12)c1ccc(Cl)cc1`, the AbsAC1 (concentration giving Tm-shift threshold 1.0) is 2.49 µM.
As for `C[C@@H]1CN([C@@H](C)CO)C(=O)c2cc(NC(=O)Nc3ccc(C(F)(F)F)cc3)ccc2O[C@@H]1CN(C)Cc1ccc(C(=O)O)cc1`, the figure is 18.1 µM.
`O=C(Nc1ccc(Cl)cc1)N[C@H]1CC[C@H](CCNC(=O)c2cc(Cl)cc(Cl)c2)O[C@@H]1CO`: the AbsAC1 (concentration giving Tm-shift threshold 1.0) was 34.9 µM.
